Data as given in patent US20200140375A1, “COMPOSITIONS AND METHODS FOR TREATING CONDITIONS ASSOCIATED WITH ALTERED TCA CYCLE METABOLISM” (IMBRIA PHARMACEUTICALS, INC., priority 2017, published 2020).

Assay: solubility in water
Type: physicochemical
Description: The compound of formula (XIII) was made and analyzed.

- solubility: 1200 mg/mL
SMILES: N[C@@H](COC(=O)CCC(=O)OCC(O)CO)C(=O)O (stereo partly shown) [formula (XIII)]
